# Results reported in patent publication US20100047231A1, “Immuno-Stimulant Combination for Prophylaxis and Treatment of Hepatitis C” (priority 2005, published 2010).
# Assays:
# Assay type in all cases: in vivo
# T1/HCVcon cells = test: Lythic activity of splenocytes from immunised HHD mice against T1/HCVcon cells (chromium release); conditions: 100 μg NS3 + poly(I:C) + anti-CD40, six days after immunisation, splenocytes stimulated five days with T1/HCVcon cells and IL-2 (FIG. 4)
# Experimental: (§1) Groups of two mice were immunised via the i.p. route with 50 μg of anti-CD40. Four hours later, they were injected with 50 μg of poly(I:C) (i.v.) and different amounts of the antigens: NS3 protein or mixtures of NS3 with peptides (i.p.).
# (§2) In order to measure the CTL responses, the splenocytes coming from the immunised animals were incubated with peptides (10 μM) for 2 h at 37° C., washed twice and cultured on 24-well plates with a confluence of 7.5×10^6 cells/well. In experiments conducted for measuring the recognition of T1/HCVcon cells, 7.5×10^6 splenocytes of HHD mice were cultured with 7.5×10^5 T1/HCVcon cells previously treated with Mitomycin C (Sigma). In all cases, two days later, 2.5 U/ml of IL-2 (Boehringer-Mannheim GmbH, Germany) was added to the wells and 5 days later the cells were recovered in order to carry out chromium release assays.
# (§3) The lythic activity was measured by incubating different quantities of effector cells for 4 h with 3000 T2 target cells previously loaded with 51Cr, with and without peptide (target). […]
# (§4) The specific lysis percentage was calculated according to the formula: […]
# (§5) where the spontaneous lysis (measured as cpmspontaneous) corresponds to target cells incubated in the absence of effector cells, and the maximum lysis (cpmmaximum) is obtained by incubating target cells with 5% Tritonx100.
# HHD mice [1] = test: IFN-γ production (ELISA) by splenocytes from immunised HHD mice stimulated with peptides or NS3; conditions: 100 μg NS3 + poly(I:C) + anti-CD40, two immunisations, sixty days after the second
# Experimental: as §1
# Splenic cells were resuspended in complete medium and plated at 8×10^5 cells/well in 0.2 ml on 96-well plates with U-shaped bottom, in the absence or presence of peptides or of the recombinant NS3 protein of the HCV.
# Two days afterwards, the supernatants were collected for measuring the presence of IFN-γ by means of ELISA (BD-Pharmingen), following the manufacturer's instructions.
# HHD mice [2] = test: Lythic activity of CTL (chromium release) of splenocytes from immunised HHD mice against peptide-loaded T2 target cells; conditions: 100 μg NS3 + poly(I:C) + anti-CD40, two immunisations, sixty days after the second (FIG. 5B)
# Experimental: as §1, §2, §3, §4, §5
substance,measurement,setting,value
"NS3 protein (SEQ. ID. NO: 2): Recombinant polypeptide with 635-amino-acid complete HCV NS3 sequence and His tail, expressed in E. coli; given with poly(I:C) and anti-CD40",Lysis of T1/HCVcon cells versus T1 control cells,T1/HCVcon cells,"greater capacity to lyse T1 cells, which expressed proteins of the HCV"
same,"Lasting CD4+ response, IFN-γ production on stimulation with NS3 protein","HHD mice [1]; NS3 1 μg/ml, 48 h (FIG. 5C)",potent and lasting CD4+ responses
same,"Lasting CD8+ response, production of IFN-γ on stimulation with peptide 1073","HHD mice [1]; peptide 1073 10 μM, 48 h (FIG. 5A)",capable of producing large amounts of IFN-γ
same,"Lasting CD8+ response, lythic activity against target cells loaded with peptide 1073",HHD mice [2],capable of lysing target cells pulsed with the peptide 1073
